Data as given in article PMC12069340 (Frontiers in Cellular and Infection Microbiology, 2025).
Where a name gives a salt, the structure may show the parent alone. Read-outs that look alike come from different tables or passages of the source.

What was measured:
[1] = system: A/PuertoRico/8/1934 (H1N1) virus; experiment: microbe, parasite or virus in culture; format: cell-based, influenza A virus
[2] = system: U937 cells; conditions: 20 µM
[3] = system: A/PuertoRico/8/1934 (H1N1) virus; experiment: microbe, parasite or virus in culture; format: cell-based, influenza A virus; remark: listed apart in the source
[4] = Validation screen: cytotoxicity without viral infection; conditions: human
[5] = in vitro; conditions: human, Relative Viability (%)
[6] = in vitro; conditions: human
[7] = system: B/Human/Hubei/1/2007 (IBV); experiment: microbe, parasite or virus in culture; format: cell-based; conditions: Influenza B virus, MDCK, 48 h, read-out: IBV IC50
[8] = in vitro
[9] = system: A/Human/Hubei/3/2005 (H3N2); experiment: microbe, parasite or virus in culture; format: cell-based; conditions: Influenza A virus, H3N2, A549, 48 h, read-out: H3N2 IC50
[10] = in vitro; conditions: human; remark: listed apart in the source
[11] = in vitro; conditions: dog
[12] = system: striatal neurons; parameters: method as in Iwatsubo et al., 2007; conditions: young and neonatal neurons; ref Iwatsubo et al., 2007; cited from earlier work
[13] = in vitro; conditions: human; remark: listed apart in the source
[14] = system: primary tumor; parameters: method as in Sakakitani et al., 2020; conditions: xenograft model; ref Sakakitani et al., 2020; cited from earlier work
[15] = system: Bovine Liver Catalase (BLC); parameters: method as in Shahraki et al., 2020; conditions: ref Shahraki et al., 2020; cited from earlier work
[16] = system: oral cancer cells; parameters: method as in Sakakitani et al., 2020; conditions: ref Sakakitani et al., 2020; cited from earlier work
[17] = system: single-stranded RNA (ssRNA) viruses; conditions: cited from earlier work
[18] = system: U937 cells
[19] = Influenza A virus, H1N1, U-937, 48 h
[20] = Influenza A virus, H1N1, U-937, 48 h; read-out: NA Inhibition (%)
[21] = Influenza A virus, H1N1, U-937, 48 h, read-out: NA Inhibition (%)

CN1CCc2cc3c(cc2[C@H]1[C@@H]1OC(=O)c2c1ccc1c2OCO1)OCO3 [(+)-Bicuculline]
NA Inhibition (%) ([1]; 20 µM): -11.3% | Relative Viability (%) [2]: 98.1%

CN(C)CCOC(c1ccc(Cl)cc1)c1ccccn1.O=C(O)/C=C\C(=O)O (centres unmarked) [ArbinoxaMine Maleate]
NA Inhibition (%) ([1]; 20 µM): 29.8% | Relative Viability (%) [2]: 94.3%

CN1CCCC(n2nc(Cc3ccc(Cl)cc3)c3ccccc3c2=O)CC1 (centres unmarked) [Azelastine HCl]
IC50 [3, 19]: 8.4 µM | inhibition at 20 µM [1, 20]: 55.3% | CC50 at 48 h ([4]; uninfected U937 cells): 55.7 µM | viability at 20 µM [5]: 99.4%

CN1[C@@H]2CC[C@H]1C[C@@H](OC(c1ccccc1)c1ccccc1)C2 [Benztropine mesylate]
inhibition at 20 µM [1, 21]: 57.8% | CC50 at 48 h ([4]; uninfected U937 cells): > 80 µM | viability at 20 µM [5]: 108%

O=C(c1ccc(OCCCc2cnc[nH]2)cc1)C1CC1 [Ciproxifan]
CC50 [6]: 425 µM | IC50 [3, 19]: 1.4 µM | IC50 [7]: 1.8 µM | CC50 ([8]; human, A549 cells): 556 µM | IC50 [9]: 14.9 µM | CC50 at 48 h [10]: 556 µM | inhibition at 20 µM [1, 20]: 75.2% | CC50 at 48 h [4]: > 80 µM | CC50 at 48 h [11]: > 400 µM | viability at 20 µM [5]: 131%

CN(C)[C@@H](CCOc1cccc2ccccc12)c1ccccc1 [Dapoxetine HCl]
IC50 [3, 19]: 6.65 µM | inhibition at 20 µM [1, 20]: 63.4% | CC50 at 48 h ([4]; uninfected U937 cells): 76.1 µM | viability at 20 µM [5]: 110%

NCCc1ccc(O)c(O)c1 [Dopamine HCl]
apoptosis [12]: can induce apoptosis in young striatal neurons through D1-like receptors, but not in neonatal neurons | inhibition at 20 µM [1, 21]: -7.6%

COc1ccc(C[C@@H](C)NC[C@H](O)c2ccc(O)c(NC=O)c2)cc1.COc1ccc(C[C@@H](C)NC[C@H](O)c2ccc(O)c(NC=O)c2)cc1.O=C(O)/C=C/C(=O)O [Formoterol Hemifumarate]
NA Inhibition (%) ([1]; 20 µM): -23.1% | Relative Viability (%) [2]: 121.9%

Cc1ccc(OCC(O)C(C)NC(C)C)c2c1CCC2 (centres unmarked) [ICI-118551]
CC50 at 48 h [13]: > 80 µM | IC50 [3, 19]: 5.8 µM | inhibition at 20 µM [1, 21]: 60.7% | viability at 20 µM [5]: 106%

CC(C)NCC(O)c1ccc(O)c(O)c1 (centres unmarked) [Isoprenaline HCl]
apoptosis [12]: did not promote apoptosis in either group | inhibition at 20 µM [1, 20]: -12.4%

CC(COc1ccccc1)NC(C)C(O)c1ccc(O)cc1 (centres unmarked) [Isoxsuprine, Isoxsuprine hydrochloride]
CC50 [6]: > 900 µM | IC50 [3, 19]: 1.5 µM | IC50 [7]: 3.4 µM | CC50 ([8]; human, A549 cells): 530 µM | IC50 [9]: 34.3 µM | CC50 at 48 h [10]: > 900 µM | inhibition at 20 µM [1, 21]: 86.5% | primary tumor growth [14]: effectively suppressed primary tumor growth | catalase activity [15]: reduce catalase activity | CC50 at 48 h [4]: > 80 µM | CC50 at 48 h [11]: > 400 µM | mesenchymal cell markers and motility [16]: downregulates mesenchymal cell markers and reduces motility | viability at 20 µM [5]: 105%

CCCCCCNC(=O)Nc1ccc(S(=O)(=O)Nc2ccc(CCNC[C@H](O)COc3ccc(O)cc3)cc2)cc1 [L755507]
NA Inhibition (%) ([1]; 20 µM): -1.1% | Relative Viability (%) [2]: 100.1%

Cc1c(Cl)c(OCC(=O)N2CCN(C)CC2)nc2sc(C(=O)NC3CC3)c(N)c12 [LY2119620]
NA Inhibition (%) ([1]; 20 µM): 19.0% | Relative Viability (%) [2]: 99.3%

O=C(C[S+]([O-])Cc1ccco1)NC/C=C\COc1cc(CN2CCCCC2)ccn1 (centres unmarked) [Lafutidine]
CC50 at 48 h [13]: > 80 µM | IC50 [3, 19]: 14.8 µM | inhibition at 20 µM [1, 20]: 52% | viability at 20 µM [5]: 109%

Cc1cccc(C(C)c2cnc[nH]2)c1C (centres unmarked) [Medetomidine HCl]
IC50 [3, 19]: 12.5 µM | inhibition at 20 µM [1, 21]: 59.7% | CC50 at 48 h [4]: > 80 µM | viability at 20 µM [5]: 103%

OC(CNCC(O)C1CCc2cc(F)ccc2O1)C1CCc2cc(F)ccc2O1 (centres unmarked) [Nebivolol]
IC50 [3, 19]: 9.8 µM | inhibition at 20 µM [1, 20]: 66.4% | CC50 at 48 h ([4]; uninfected U937 cells): 33.3 µM | viability at 20 µM [5]: 89.4%

CCCN1C[C@H](CSC)C[C@@H]2c3cccc4[nH]cc(c34)C[C@H]21 [Pergolide mesylate]
IC50 [3, 19]: 7.1 µM | inhibition at 20 µM [1, 20]: 67.8% | CC50 at 48 h ([4]; uninfected U937 cells): > 80 µM | viability at 20 µM [5]: 118%

Cc1ccc(N(CC2=NCCN2)c2cccc(O)c2)cc1 [Phentolamine Mesylate]
IC50 [3, 19]: 1 µM | inhibition at 20 µM [1, 21]: 72.3% | CC50 at 48 h ([4]; uninfected U937 cells): > 80 µM | viability at 20 µM [5]: 117%

CCCN[C@H]1CCc2nc(N)sc2C1 [Pramipexole]
NA Inhibition (%) ([1]; 20 µM): -25.0 | Relative Viability (%) ([2]; human): 91.8

CN1CCN(CCCN2c3ccccc3Sc3ccc(Cl)cc32)CC1 [Prochlorperazine dimaleate, Prochlorperazine dimaleate salt]
inhibition at 20 µM [1, 21]: 63.9% | CC50 at 48 h ([4]; uninfected U937 cells): 38.4 µM | antiviral properties, virus entry [17]: exhibits antiviral properties by disrupting clathrin redistribution | viability at 20 µM [5]: 93.5%

CCCN(CCc1cccs1)[C@H]1CCc2c(O)cccc2C1 [Rotigotine]
IC50 [3, 19]: 1.26 µM | IC50 [7]: 7.3 µM | CC50 ([8]; human): 372 µM | IC50 [9]: 21.9 µM | inhibition at 20 µM [1, 20]: 89.1% | CC50 at 48 h [11]: 93 µM | viability at 20 µM [5]: 147%

OCc1cc(C(O)CNCCCCCCOCCCCc2ccccc2)ccc1O (centres unmarked) [Salmeterol Xinafoate]
IC50 [3, 19]: 4.4 µM | inhibition at 20 µM [1, 21]: 69.9% | CC50 at 48 h ([4]; uninfected U937 cells): 40.2 µM | viability at 20 µM [5]: 90.4%

Cc1ccsc1C(=CCCN1CCC[C@@H](C(=O)O)C1)c1sccc1C [Tiagabine hydrochloride]
NA Inhibition (%) ([1]; 20 µM): 19.9% | Relative Viability (%) ([2]; human): 91.7%

COc1ccc(C(CN(C)C)C2(O)CCCCC2)cc1 (centres unmarked) [Venlafaxine]
inhibition at 20 µM [1, 20]: -1.3% | viability at 20 µM [5]: 93.2%

N#Cc1ccc2[nH]cc(CCCCN3CCN(c4ccc5oc(C(N)=O)cc5c4)CC3)c2c1 [Vilazodone HCl]
inhibition at 20 µM [1, 20]: -49.6% | viability at 20 µM [5]: 98.9%

C=C(CC)C(=O)c1ccc(OCC(=O)O)c(Cl)c1Cl [ethacrynic acid, Ethacrynic acid]
CC50 [8]: 240 µM

COc1cc([C@@H]2c3cc4c(cc3[C@@H](O[C@@H]3O[C@@H]5CO[C@@H](C)O[C@H]5[C@H](O)[C@H]3O)[C@H]3COC(=O)[C@H]23)OCO4)cc(OC)c1O [etoposide]
CC50 [8]: 260 µM

(+)-Matrine
NA Inhibition (%) ([1]; 20 µM): 9.9% | Relative Viability (%) [2]: 109.9%

Almotriptan Malate
NA Inhibition (%) ([1]; 20 µM): 21.0% | Relative Viability (%) [2]: 114.2%

Atipamezole hydrochloride
NA Inhibition (%) ([1]; 20 µM): 58.1% | Relative Viability (%) [2]: 119.4%

Bambuterol HCl
NA Inhibition (%) ([1]; 20 µM): -2.9% | Relative Viability (%) [2]: 102.5%

Cyclizine 2HCl
NA Inhibition (%) ([1]; 20 µM): -4.6% | Relative Viability (%) [2]: 90.9%

Gabapentin HCl
NA Inhibition (%) ([1]; 20 µM): -16.1% | Relative Viability (%) [2]: 111.9%

Galanthamine HBr
NA Inhibition (%) ([1]; 20 µM): -13.2% | Relative Viability (%) [2]: 108.7%

Hydroxyzine 2HCl
NA Inhibition (%) ([1]; 20 µM): 18.4% | Relative Viability (%) [2]: 101.7%

Itopride hydrochloride
NA Inhibition (%) ([1]; 20 µM): 9.1% | Relative Viability (%) [2]: 109.7%

Ivabradine HCl
NA Inhibition (%) ([1]; 20 µM): -0.1% | Relative Viability (%) [2]: 104.6%

Lorcaserin HCl
NA Inhibition (%) ([1]; 20 µM): 17.8% | Relative Viability (%) [2]: 104.4%

Meclizine 2HCl
IC50 ([3]; read-out: IC50): 5.3 µM | NA Inhibition (%) ([1]; 20 µM): 74.9% | Relative Viability (%) [2]: 109.3% | CC50 [18]: 79.5 µM

MetoclopraMide HCl
NA Inhibition (%) ([1]; 20 µM): -36.9% | Relative Viability (%) [2]: 126.3%

Naftopidil DiHCl
NA Inhibition (%) ([1]; 20 µM): 6.2% | Relative Viability (%) [2]: 88.1%

Naloxone HCl Dihydrate
NA Inhibition (%) ([1]; 20 µM): 27.3% | Relative Viability (%) [2]: 113.1%

Ondansetron HCl
NA Inhibition (%) ([1]; 20 µM): 4.7% | Relative Viability (%) [2]: 98.5%

PRX-08066 Maleic acid
NA Inhibition (%) ([1]; 20 µM): 20.2% | Relative Viability (%) [2]: 92.0%

Paroxetine HCl
NA Inhibition (%) ([1]; 20 µM): 51.2% | Relative Viability (%) [2]: 85.1%

Promethazine HCl
IC50 ([3]; read-out: IC50): 9.3 µM | NA Inhibition (%) ([1]; 20 µM): 64.8% | Relative Viability (%) [2]: 105.7% | CC50 [18]: > 80 µM

Propranolol HCl
NA Inhibition (%) ([1]; 20 µM): 65.3% | CC50 [18]: > 80 µM

Salbutamol Sulfate
NA Inhibition (%) ([1]; 20 µM): 6.4% | Relative Viability (%) [2]: 114.7%

Succinylcholine Chloride Dihydrate
NA Inhibition (%) ([1]; 20 µM): 13.3% | Relative Viability (%) [2]: 99.6%

Synephrine HCl
NA Inhibition (%) ([1]; 20 µM): 10.3% | Relative Viability (%) [2]: 99.1%

Tetrahydrozoline HCl
NA Inhibition (%) ([1]; 20 µM): 9.5% | Relative Viability (%) [2]: 96.0%

Urapidil HCl
NA Inhibition (%) ([1]; 20 µM): 5.3% | Relative Viability (%) [2]: 103.3%

Varenicline Tartrate
NA Inhibition (%) ([1]; 20 µM): 6.8% | Relative Viability (%) [2]: 108.9%

Vortioxetine (Lu AA21004) HBr
NA Inhibition (%) ([1]; 20 µM): 23.8% | Relative Viability (%) [2]: 95.3%
